The source of these data is patent US5627191A, “Therapeutic agents” (The Boots Company PLC, priority 1992, dated 1997).

Counter-ions that a name gives are not always drawn. Where only a bound is given, the exact number is not on record here.

Data set [1] has as its target T1, adrenal membrane angiotensin II receptor (Oryctolagus cuniculus, UniProt P34976).
T1 construct: Aliquots of rabbit adrenal membranes containing 10-30 μg protein were incubated; from tissue; host or cells: adrenal gland membranes of male New Zealand white rabbits
T1 sequence (P34976 1-359): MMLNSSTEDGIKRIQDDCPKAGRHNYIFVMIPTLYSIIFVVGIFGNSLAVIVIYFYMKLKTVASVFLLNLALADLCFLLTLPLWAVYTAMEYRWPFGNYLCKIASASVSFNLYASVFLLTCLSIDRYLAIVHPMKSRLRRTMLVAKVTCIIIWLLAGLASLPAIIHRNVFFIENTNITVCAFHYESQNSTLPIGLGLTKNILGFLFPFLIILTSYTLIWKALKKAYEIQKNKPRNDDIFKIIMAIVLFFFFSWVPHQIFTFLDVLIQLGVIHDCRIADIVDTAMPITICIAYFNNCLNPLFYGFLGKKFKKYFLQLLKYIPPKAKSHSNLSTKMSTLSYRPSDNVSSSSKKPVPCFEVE
Briefly: Test A: binding affinity to the adrenal membrane angiotensin II receptor in vitro. Set-up: species or system rabbit (male New Zealand white). To be noted: rabbit adrenal membranes, 0.05 nM [^125 I]angiotensin II, 60 minutes at 25° C.; read-out: Ki from Test A. The procedure: In test A the binding affinity of compounds to the adrenal membrane angiotensin II receptor was determined in vitro and in tests B and C the antihypertensive effect of the compounds was measured in vivo. A detailed description of the tests follows. Test A 1) Preparation of Membranes Adrenal glands from male New Zealand white rabbits were homogenised on ice in 20 mM aqueous sodium bicarbonate solution containing 50 μM PMSF (phenylmethanesulphonyl fluoride) (2 ml/g wet weight) using a Polytron (Trademark) homogeniser for 3×15 seconds at setting 8. The homogenate was centrifuged at 900 g for 10 minutes at 4° C. and the pellet was discarded. The supernatant was recentrifuged at 30000 g for 30 minutes at 4° C., and the resulting pellet was resuspended in assay buffer (50 mM Tris-HCl, pH 7.4, containing 1 mM EDTA, 6.5 mM MgCl2, 125 mM NACl, 50 μM PMSF, 5 μg/ml pepstatin and 50 μg/ml each of leupeptin, antipain, aprotinin and chymostatin): 10 ml per g original tissue wet weight. Polyethylene glycol was added (final concentration 30%) as a cryopreservant and the membrane preparation divided into aliquots and stored at -80° C. until required. Protein was determined by a modification of the method of Lowry (Markwell et al, (1978) Anal. Biochem., 87: 206-210). 2) Binding Assay Aliquots of rabbit adrenal membranes containing 10-30 μg protein were incubated with 0.05 nM [^125 I]angiotensin II in the presence or absence of potential angiotensin II antagonists in 1 ml polyamide tubes in a total volume of 200 μI assay buffer. After incubation for 60 minutes am 25° C. the reaction was terminated by the addition of ice-cold assay buffer, and the bound and free radioactivity was separated through Skatron (Trademark) receptor-binding filters, pre-wetted with assay buffer, using a Skatron cell harvester. The filters were washed with ice-cold phosphate buffered saline, dried, and the trapped radioactivity was determined using a gamma counter. Non-specific binding, measured in the presence of 2 μM unlabelled angiotensin II, was subtracted from total binding to obtain specific binding. Radioligand binding curves were analysed using EBDA and LIGAND (Cambridge Biosoft). Values for binding affinity were obtained by nonlinear regression analysis of untransformed data. The activities of the compounds described in the Examples given hereinafter are set out below in Table A, Column 1.

Data set [2] can be described thus: Hygroscopicity observed in preparation. The data set is classed as physicochemical. To be noted: dried before use by heating in vacuo.
In data set [3] the test system is Aoki-Okamoto strain of spontaneously hypertensive rat. Briefly: Test B: oral antihypertensive effect, threshold dose. Type of data set: in vivo. The conditions noted are these: Rattus norvegicus, po, 5 h, dose giving a reduction of blood pressure of between 9 and 16% after correction, 1.5 and 5.0 hours after dosing, read-out: Threshold anti-hypertensive dose from Test B. The procedure:
(§1) In test A the binding affinity of compounds to the adrenal membrane angiotensin II receptor was determined in vitro and in tests B and C the antihypertensive effect of the compounds was measured in vivo. A detailed description of the tests follows.
(§2) Female rats, weight range 180-240 g, of the Aoki-Okamoto strain of spontaneously hypertensive rat were used. The rats in groups of four were fasted overnight before administration of the test compound. Blood pressure was determined in the following way. The rats were placed in a cabinet kept at 38° C. with their tails protruding through holes in the cabinet. After 30 minutes in the cabinet blood pressure was measured using an inflatable cuff placed round the base of the mail and arterial pulsations monitored with a pneumatic pulse transducer. […] The pressure in the cuff at which arterial pulsations reappeared was taken as the blood pressure. The rats were removed from the cabinet and each group orally dosed with a given dose of the test compound given as a solution or suspension in 0.25% aqueous carboxymethylcellulose. In addition to the predose reading, blood pressure was measured at 1.5 and 5.0 hours after dosing. The degree of blood pressure reduction sufficient to achieve a significance level of p<0.01 compared to controls was 9% after correction for control changes at appropriate time intervals. Thus, compounds were considered to be active in this test if they produced a reduction of blood pressure after correction of 9% or greater than 9%.
(§3) Threshold antihypertensive doses of compounds of formula I were determined in the following way. Compounds were tested initially at a particular dose level, for example 90 mg/kg.
The activities of the compounds described in the Examples given hereinafter are set out below in Table A, Column 2.

Data set [4] has the same test system. Kind of data set: Test C: oral antihypertensive effect after pretreatment with bendrofluazide, threshold dose. To be noted: pretreated with bendrofluazide 10 mg/kg at 16 hours and 2 hours prior to dose. The data set is classed as in vivo. The procedure: as §1, §2, §3
The procedure of Test B above was carried out subject to the modification of pretreating the rats with bendrofluazide 10 mg/kg (an orally administered diuretic) at 16 hours and 2 hours prior to the dose of the test compound, to ensure activation of the reninangiotensin system.
The activities of the compounds described in the Examples given hereinafter are set out below in Table A, Column 3.

Consider `CCc1nc2c(C)cc(C)nc2n1Cc1ccc(-c2ccccc2-c2c(N(C)C)c(=O)c2=O)cc1` [Example 16, 3-dimethylamino-4-[4'-(2-ethyl-5,7-dimethyl-3H-imidazo-[4,5-b]pyrid-3-ylmethyl)biphenyl-2-yl]cyclobut-3-ene-1,2-dione], for which, in data set [1], the Ki turned out to be 1890 nM. Besides, in data set [2], the hygroscopic entry is “appeared to be hygroscopic”.
Taken in the same sequence, the figures for `CCc1nc2c(C)cc(C)nc2n1Cc1ccc(-c2ccccc2-c2c(OC(C)OC(=O)C(C)(C)C)c(=O)c2=O)cc1` (stereo not shown) [Example 17, 1-[2-[4'-(2-ethyl-5,7-dimethyl-3H-imidazo[4,5-b]pyrid-3-ylmethyl)biphenyl-2-yl]-3,4-dioxocyclobut-1-en-1-yloxy]ethyl pivalate 0.22 ethyl acetate solvate] were 21.5 nM and “appeared to be hygroscopic”.
For `CCCCc1nc(Cl)c(C(=O)O)n1Cc1ccc(-c2ccccc2-c2c(O)c(=O)c2=O)cc1` [Example 29, 2-butyl-4-chloro-1-[2'-(2-hydroxy-3,4-dioxocyclobut-1-en-1-yl)biphenyl-4-ylmethyl]-1H-imidazole-5-carboxylic acid 0.4 hydrochloride], the Ki in data set [1] was 13.7 nM. Besides, in data set [3], the minimal effective dose was above 3 mg/kg. In addition, the “Threshold anti-hypertensive dose from Test C” value in data set [4] came to 3 mg/kg.

Usually Ki stands for a dissociation constant, usually derived from enzyme kinetics or from competition with a known ligand.
